Laboratory results as given in patent US8772029B2, “Modulation of oocyte meiotic progression and oocyte activation” (Northwestern University, priority 2011, dated 2014).
“Also recorded” adds a separate entry of the source.

Assays:
[1] = system: GV oocytes; assay: TPEN treatment of PDE-inhibitor arrested GV oocytes; type: cell-based
Text: In certain embodiments, zinc modulation is useful for overcoming earlier meiotic arrests. Normally, treatment of GV stage oocytes with broad-spectrum or PDE3-specific phosphodiesterase (PDE) inhibitors results in maintenance of GV arrest due to elevated cAMP levels. […] As such, limiting zinc availability could also be used to overcome GV arrest and allow progression through GVBD in clinical cases of GV arrest. The methods of the present invention are also useful as a secondary treatment for oocytes that remain GV arrested following conventional in vitro maturation, and could be of particular value for use in conjunction with in vitro follicle culture systems currently being developed for use in fertility preservation programs for patients undergoing fertility-threatening cancer treatments, in which methods for overcoming GV arrest are necessary (Xu et al 2006).

[2] = system: zinc-insufficient oocytes; assay: Spindle phenotype scoring after IVM in TPEN with proteasome inhibitor MG132 added after 10 h; type: cell-based, mouse; conditions: TPEN 16 h without MG132; n=13
Procedure: (§1) For IVM studies, immature female CD1 mice (17 to 21 day old) were injected with 5IU equine chorionic gonadotropin (eCG) (Calbiochem, La Jolla, CA) in 100 μL sterile phosphate-buffered saline (PBS), intraperitoneally. After 44 to 48 hours, mice were anesthetized using isoflurane and euthanized by cervical dislocation. Dissected ovaries were placed in Leibovitz L-15 medium containing 1% FBS (L-15/FBS) and 0.2mM 3-isobutyl-1-methylxanthine (IBMX), and large antral follicles were punctured using 28 gauge needles to release cumulus oocyte complexes (COCs). COCs were washed through several drops of culture medium consisting of Minimum Essential Medium (MEM)-alpha with GLUTAMAX supplemented with 10% FBS, 1.5IU/mL human chorionic gonadotropin (hCG), and 5ng/mL epidermal growth factor and placed in culture medium with or without 10 μM N,N,N′,N′-tetrakis(2-pyridylmethyl) ethylenediamine (TPEN). In some experiments Z-Leu-Leu-Leu-al (MG132) was added to culture medium at 20 μM. COCs were cultured in drops of pre-equilibrated medium covered with embryo quality mineral oil at 37° C. in 5% CO2 with a humid environment. Ovulated MII eggs were collected from 4 to 6 week old mice primed with 5IU PMSG followed 48 h later by 5IU hCG. Oviducts were dissected into L-15/FBS, and eggs were removed and treated with 0.03% (w/v) hyaluronidase to remove cumulus cells. Eggs were washed and cultured in potassium simplex optimized medium (KSOM) (Millipore, Billerica, MA) covered with embryo quality mineral oil at 37° C. in 5% CO2.
(§2) Oocytes were denuded of cumulus cells and fixed in a microtubule stabilizing buffer (Ibanez et al., 2005) containing 2% formaldehyde and 1% Triton X-100 for 30 min at 37° C. Oocytes were washed and blocked in PBS containing 0.1M glycine, 3mg/mL BSA, 0.01% Tween 20, and 0.01% sodium azide for at least 1 h and were stored in blocking solution at 4° C. for up to 2 weeks. Oocytes were incubated with anti-tubulin antibody (1:100) for 1 h at 37C. followed by three washes in blocking solution. They were then incubated for 1 h in AlexaFluor-488 conjugated anti-mouse secondary antibody (5μg/mL) and rhodamine-phalloidin (2U/mL), washed three additional times, and mounted in VECTASHIELD with DAPI. Microscopy was performed using a Leica SP5 inverted laser-scanning confocal microscope with a 63x oil immersion objective (Leica Microsystems, Heidelberg, Germany). Images were processed using LAS AF software (Leica Microsystems).
It has been previously shown that zinc-insufficient oocytes fail to increase MPF activity following the first meiotic division and have low CCNB1 protein levels (Bernhardt et al., 2010). In order to determine whether this decrease in CCNB1 is the major cause of the observed meiotic arrest phenotype, it was tested whether increasing CCNB1 would be sufficient to rescue MII entry in zinc-insufficient oocytes by inhibiting the proteasome at the end of the MI-MII transition, thereby halting CCNB1 degradation. Experimental oocytes were cultured for 10 hours in TPEN-containing medium and were then transferred into medium containing TPEN as well as the proteasome inhibitor Z-Leu-Leu-Leu-al (MG132) at 20 μM concentration. MG132 was added after first polar body extrusion, because earlier addition would result in MI arrest due to failure to degrade APC/C targets that prevent cell division. Oocytes were cultured for an additional 6 h in the presence of MG132 to allow time for CCNB1 reaccumulation, for a total 16 h IVM culture period. Proteasome inhibition led to a partial rescue of the zinc insufficiency phenotype. 69% of treated oocytes formed spindle-like structures, and none were in telophase I arrest, despite being cultured in the presence of TPEN for the entire culture period (FIG. 2, A; Table 2).
A majority of zinc-insufficient oocytes treated with MG132 following the first meiotic division transition progress beyond telophase-I arrest and form MII spindle-like structures. […]

[3] = system: oocytes; assay: Spindle phenotype scoring after in vitro maturation (IVM) with TPEN, MI-MII transition; type: cell-based, mouse
Procedure: as §1
as §2, with “Microsystems). […]” for “Microsystems).”
Oocytes treated with TPEN during the MI-MII transition fail to enter MII. Following IVM under the conditions listed in control (C) or TPEN-containing (T) medium, oocytes were stained and imaged, and their spindle phenotypes were scored.

[4] = system: MPF activity; assay: Histone H1 kinase assay on single oocytes/eggs (MPF activity); type: cell-based, mouse
Procedure: Histone H1 and myelin basic protein (MBP) dual kinase assays were performed as previously described (Svoboda et al., 2000). Dried gels were exposed to Kodak BIOMAX MR films for 12 to 72 hours at −80° C. using Kodak intensifying screens; films were developed, scanned, and analyzed using ImageJ software. Assays were performed on single oocytes, and densitometric analysis is expressed relative to levels in control eggs.

[5] = COCs in control medium 7.5 h, then 10 μM TPEN 6.5 h, n=42
[6] = COCs in control medium 7.5 h, then 10 μM TPEN 6.5 h, n=42, listed as T

- MPF activity (histone H1 kinase) in MII eggs ([4]; in vivo ovulated MII eggs, KSOM with 10 μM TPEN, 1 to 8 hours, seen as soon as 1 hour): decline
- MPF activity (histone H1 kinase) ([4]; oocytes cultured with 10 μM TPEN during the MI-MII transition (7.5 h control, 6.5 h TPEN)): low
Structure (SMILES): c1ccc(CN(CCN(Cc2ccccn2)Cc2ccccn2)Cc2ccccn2)nc1 [TPEN, N,N,N′,N′-tetrakis(2-pyridylmethyl)ethylenediamine]
- progression to MII after transfer back to zinc replete medium ([1]; PDE-inhibitor arrested GV oocytes that resumed meiosis under TPEN): a proportion of these oocytes progress to MII
- meiotic resumption of GV-arrested oocytes ([1]; oocytes held at GV stage with phosphodiesterase inhibitors, TPEN treatment): premature GV breakdown (GVBD) and meiotic progression; also recorded: premature meiotic progression and GV breakdown (GVBD)
- MII (aligned metaphase plate) [2]: 0%
- other spindle phenotype [2]: 23%
- persisting midbody or chromatin mass [2]: 0%
- spindle with chr. scattered along length [2]: 0%
- spindle with ≦3 chr. out of place [2]: 0%
- TPEN-like (telophase-I arrest-like) spindle phenotype [3, 5]: 31%
- normal MII spindle [3, 5]: failed to form MII spindles and none
- other (>2 chr. masses) spindle phenotype [3, 5]: 19%
- partial TPEN-like (chromatin mass) spindle phenotype [3, 5]: 54%
- TPEN-like (telophase-I arrest-like) spindle phenotype [3, 6]: 31%
- normal MII spindle [3, 6]: 0%
- partial TPEN-like (chromatin mass) spindle phenotype [3, 6]: 54%
- TPEN-like (telophase-I arrest-like) spindle phenotype ([3]; TPEN 14 h IVM, n=34): 91%
- normal MII spindle ([3]; TPEN 14 h IVM, n=34): 0%
- other (>2 chr. masses) spindle phenotype ([3]; TPEN 14 h IVM, n=34): 6%
- partial TPEN-like (chromatin mass) spindle phenotype ([3]; TPEN 14 h IVM, n=34): 3%
